Experiments:
[1] = biological target: Cyclin-dependent kinase 1/cyclin B1 (Homo sapiens, UniProt P06493); assay: Inhibition of CDK1/cyclin B; type: protein-complex assay
[2] = biological target: Cyclin-dependent kinase 5 (Homo sapiens, UniProt Q00535); assay: Inhibition of CDK5
[3] = biological target: Glycogen synthase kinase-3 beta (Homo sapiens, UniProt P49841); assay: Inhibition of GSK3-beta
[4] = Inhibition of tubulin polymerization

Chain of Cyclin-dependent kinase 5 (Q00535 whole entry): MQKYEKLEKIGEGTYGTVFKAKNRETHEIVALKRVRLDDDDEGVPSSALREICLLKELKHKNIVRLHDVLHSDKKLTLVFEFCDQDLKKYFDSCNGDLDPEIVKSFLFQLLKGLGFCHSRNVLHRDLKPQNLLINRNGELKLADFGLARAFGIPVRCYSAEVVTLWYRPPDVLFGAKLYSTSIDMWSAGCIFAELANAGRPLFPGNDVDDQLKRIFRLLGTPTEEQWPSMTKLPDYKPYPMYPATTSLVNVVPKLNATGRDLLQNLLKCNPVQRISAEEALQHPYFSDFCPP
Chain of Glycogen synthase kinase-3 beta (P49841 whole entry): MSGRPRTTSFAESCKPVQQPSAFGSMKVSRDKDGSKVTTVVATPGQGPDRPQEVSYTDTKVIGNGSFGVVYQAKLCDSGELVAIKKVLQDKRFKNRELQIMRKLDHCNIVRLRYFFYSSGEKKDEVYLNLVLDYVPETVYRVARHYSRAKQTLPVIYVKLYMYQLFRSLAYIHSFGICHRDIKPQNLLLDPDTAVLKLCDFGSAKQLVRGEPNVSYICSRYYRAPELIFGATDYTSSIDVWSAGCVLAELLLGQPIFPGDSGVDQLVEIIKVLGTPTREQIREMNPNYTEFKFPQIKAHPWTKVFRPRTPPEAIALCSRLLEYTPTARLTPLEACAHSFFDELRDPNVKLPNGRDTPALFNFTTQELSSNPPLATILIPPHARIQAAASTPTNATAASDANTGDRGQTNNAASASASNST
Chain of Cyclin-dependent kinase 1/cyclin B1 (P06493 whole entry): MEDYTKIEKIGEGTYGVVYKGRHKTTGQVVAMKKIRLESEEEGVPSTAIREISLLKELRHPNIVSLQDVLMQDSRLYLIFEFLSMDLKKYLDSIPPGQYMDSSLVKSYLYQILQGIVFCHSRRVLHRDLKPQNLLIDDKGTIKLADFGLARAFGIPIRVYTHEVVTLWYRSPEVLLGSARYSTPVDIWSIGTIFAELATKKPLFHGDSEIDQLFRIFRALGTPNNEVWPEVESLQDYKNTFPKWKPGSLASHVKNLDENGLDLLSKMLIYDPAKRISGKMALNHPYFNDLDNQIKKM
Chain of Cyclin-dependent kinase 1/cyclin B1 (P14635 whole entry, further chain): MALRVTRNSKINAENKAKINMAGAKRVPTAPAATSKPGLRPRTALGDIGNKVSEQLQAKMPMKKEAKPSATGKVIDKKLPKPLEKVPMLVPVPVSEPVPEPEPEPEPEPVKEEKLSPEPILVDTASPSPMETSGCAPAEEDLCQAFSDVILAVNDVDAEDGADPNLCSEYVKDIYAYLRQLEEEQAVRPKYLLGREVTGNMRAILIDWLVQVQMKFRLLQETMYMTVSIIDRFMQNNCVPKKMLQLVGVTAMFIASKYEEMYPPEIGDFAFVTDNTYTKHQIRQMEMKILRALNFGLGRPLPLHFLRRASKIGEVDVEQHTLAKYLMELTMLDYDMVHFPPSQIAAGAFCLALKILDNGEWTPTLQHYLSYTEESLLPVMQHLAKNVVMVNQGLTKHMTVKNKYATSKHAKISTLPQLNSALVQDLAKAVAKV

| SMILES | IC50 [1] [µM] | IC50 [2] [µM] | IC50 [3] [µM] | IC50 [4] [µM] |
| --- | --- | --- | --- | --- |
| COc1ccc(-c2coc3c2-n2cccc2C3=O)cc1OC | > 50 | > 50 | > 50 | – |
| COc1ccc(-c2csc3c2-n2cccc2C3=O)cc1O | 5.5 | – | – | 2.9 |
| COc1ccc(-c2csc3c2-n2cccc2C3=O)cc1OCc1ccccc1 | > 50 | – | > 50 | – |
| COc1ccc(-c2c[nH]c3c2-n2cccc2C3=O)cc1OC | – | > 50 | > 50 | – |
| COc1ccc(-c2c[nH]c3c2-n2cccc2/C3=N/O)cc1O | 3.8 | 3.2 | 5.5 | – |
| COc1ccc(-c2c[nH]c3[nH]c(=O)c4cccn4c23)cc1OC | – | > 50 | > 50 | – |
| O=C1c2[nH]cc(-c3ccc(Cl)cc3)c2-n2cccc21 | > 50 | > 50 | > 50 | – |
| COc1ccc(-c2c[nH]c3c2-n2cccc2/C3=N/O)cc1OCc1ccccc1 | 9 | 14 | 17 | – |
| O=c1[nH]c2occ(-c3ccc(Br)cc3)c2n2cccc12 | – | > 50 | > 50 | – |
| COc1ccc(-c2coc3[nH]c(=O)c4cccn4c23)cc1 | – | > 50 | > 50 | – |
| O=c1[nH]c2occ(-c3ccc(Cl)c(Cl)c3)c2n2cccc12 | – | > 50 | > 50 | – |
| COc1ccc(-c2coc3[nH]c(=O)c4cccn4c23)cc1OC | – | > 50 | > 50 | – |
| COc1ccc(-c2c[nH]c3c2-n2cccc2C3=O)cc1OCc1ccccc1 | > 50 | > 50 | > 50 | – |
| O=c1[nH]c2[nH]cc(-c3ccc(Cl)cc3)c2n2cccc12 | – | > 50 | > 50 | – |
| Cc1ccc(-c2coc3[nH]c(=O)c4cccn4c23)cc1 | – | > 50 | > 50 | – |
| O=c1[nH]c2occ(-c3ccc(F)cc3)c2n2cccc12 | – | > 50 | > 50 | – |
| COc1ccc(-c2c[nH]c3c2-n2cccc2C3=O)cc1O | 22 | 30 | 11 | – |
